# Laboratory results: ChEMBL document CHEMBL3286227, “Guanidinium-based derivatives: searching for new kinase inhibitors” (Eur J Med Chem, 2014)
# pIC50: −log10 of the molar value. The source made the active and inactive calls. The calls are words filed in the database; no cut-off is given here.
# Key:
# HL-60 [1] = assay: Cell cycle arrest in human HL60 cells assessed as accumulation at G0/G1 phase at 1 uM after 72 hrs by propidium iodide staining-based flow cytometry (reference value: 65.7 +/- 0.1%); assay type: functional
# HL-60 [2] = assay: Cell cycle arrest in human HL60 cells assessed as accumulation at G0/G1 phase at 25 uM after 72 hrs by propidium iodide staining-based flow cytometry (reference value: 65.7 +/- 0.1%); assay type: functional
# HL-60 [3] = assay: Cell cycle arrest in human HL60 cells assessed as accumulation at G0/G1 phase at 50 uM after 72 hrs by propidium iodide staining-based flow cytometry (reference value: 65.7 +/- 0.1%); assay type: functional
# HL-60 [4] = assay: Cell cycle arrest in human HL60 cells assessed as accumulation at S phase at 10 uM after 48 hrs by propidium iodide staining-based flow cytometry (reference value: 21.5 +/- 1.0%); assay type: functional
# HL-60 [5] = assay: Cell cycle arrest in human HL60 cells assessed as accumulation at S phase at 25 uM after 48 hrs by propidium iodide staining-based flow cytometry (reference value: 21.5 +/- 1.0%); assay type: functional
# HL-60 [6] = assay: Cell cycle arrest in human HL60 cells assessed as accumulation at S phase at 50 uM after 48 hrs by propidium iodide staining-based flow cytometry (reference value: 21.5 +/- 1.0%); assay type: functional
# HL-60 [7] = assay: Cell cycle arrest in human HL60 cells assessed as accumulation at S phase at 1 uM after 72 hrs by propidium iodide staining-based flow cytometry (reference value: 16.4 +/- 0.8%); assay type: functional
# HL-60 [8] = assay: Cell cycle arrest in human HL60 cells assessed as accumulation at S phase at 25 uM after 72 hrs by propidium iodide staining-based flow cytometry (reference value: 16.4 +/- 0.8%); assay type: functional
# HL-60 [9] = assay: Cell cycle arrest in human HL60 cells assessed as accumulation at S phase at 50 uM after 72 hrs by propidium iodide staining-based flow cytometry (reference value: 16.4 +/- 0.8%); assay type: functional
# HL-60 [10] = assay: Cell cycle arrest in human HL60 cells assessed as accumulation at G2/M phase at 1 uM after 48 hrs by propidium iodide staining-based flow cytometry (reference value: 18.4 +/- 1.3%); assay type: functional
# HL-60 [11] = assay: Cell cycle arrest in human HL60 cells assessed as accumulation at G2/M phase at 10 uM after 48 hrs by propidium iodide staining-based flow cytometry (reference value: 18.4 +/- 1.3%); assay type: functional
# HL-60 [12] = assay: Cell cycle arrest in human HL60 cells assessed as accumulation at G2/M phase at 50 uM after 48 hrs by propidium iodide staining-based flow cytometry (reference value: 18.4 +/- 1.3%); assay type: functional
# HL-60 [13] = assay: Cell cycle arrest in human HL60 cells assessed as accumulation at G2/M phase at 10 uM after 72 hrs by propidium iodide staining-based flow cytometry (reference value: 14.8 +/- 0.7%); assay type: functional
# HL-60 [14] = assay: Cell cycle arrest in human HL60 cells assessed as accumulation at G2/M phase at 50 uM after 72 hrs by propidium iodide staining-based flow cytometry (reference value: 14.8 +/- 0.7%); assay type: functional
# HL-60 [15] = assay: Cell cycle arrest in human HL60 cells assessed as accumulation at Gn phase at 1 uM after 48 hrs by propidium iodide staining-based flow cytometry (reference value: 2.49 +/- 0.4%); assay type: functional
# HL-60 [16] = assay: Cell cycle arrest in human HL60 cells assessed as accumulation at Gn phase at 25 uM after 48 hrs by propidium iodide staining-based flow cytometry (reference value: 2.49 +/- 0.4%); assay type: functional
# HL-60 [17] = assay: Cell cycle arrest in human HL60 cells assessed as accumulation at Gn phase at 50 uM after 48 hrs by propidium iodide staining-based flow cytometry (reference value: 2.49 +/- 0.4%); assay type: functional
# HL-60 [18] = assay: Cell cycle arrest in human HL60 cells assessed as accumulation at Gn phase at 1 uM after 72 hrs by propidium iodide staining-based flow cytometry (reference value: 2.49 +/- 0.3%); assay type: functional
# HL-60 [19] = assay: Cell cycle arrest in human HL60 cells assessed as accumulation at Gn phase at 25 uM after 72 hrs by propidium iodide staining-based flow cytometry (reference value: 2.49 +/- 0.3%); assay type: functional
# HL-60 [20] = assay: Cell cycle arrest in human HL60 cells assessed as accumulation at Gn phase at 50 uM after 72 hrs by propidium iodide staining-based flow cytometry (reference value: 2.49 +/- 0.3%); assay type: functional
# [21] = molecular target: Casein kinase I isoform delta (Homo sapiens, UniProt P48730); assay: Inhibition of human recombinant casein kinase-1 delta using casein as substrate after 60 mins by kinase-glo luminescence assay
# Chain of Casein kinase I isoform delta (P48730 whole entry, canonical isoform): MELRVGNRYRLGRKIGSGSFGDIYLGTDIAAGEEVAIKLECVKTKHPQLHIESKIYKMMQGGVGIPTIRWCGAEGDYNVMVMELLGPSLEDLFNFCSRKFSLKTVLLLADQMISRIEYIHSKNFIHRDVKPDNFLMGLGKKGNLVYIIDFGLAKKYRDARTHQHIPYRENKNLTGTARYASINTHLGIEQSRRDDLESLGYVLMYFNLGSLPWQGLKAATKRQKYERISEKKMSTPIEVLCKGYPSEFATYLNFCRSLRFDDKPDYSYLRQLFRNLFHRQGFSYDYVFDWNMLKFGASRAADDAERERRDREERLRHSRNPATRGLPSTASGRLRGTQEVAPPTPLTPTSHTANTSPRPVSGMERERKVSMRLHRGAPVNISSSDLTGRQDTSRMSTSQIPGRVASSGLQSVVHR
# [22] = molecular target: Glycogen synthase kinase-3 beta (Homo sapiens, UniProt P49841); assay: Inhibition of human recombinant GSK-3 beta after 30 mins by luminescence assay
# Chain of Glycogen synthase kinase-3 beta (P49841 whole entry): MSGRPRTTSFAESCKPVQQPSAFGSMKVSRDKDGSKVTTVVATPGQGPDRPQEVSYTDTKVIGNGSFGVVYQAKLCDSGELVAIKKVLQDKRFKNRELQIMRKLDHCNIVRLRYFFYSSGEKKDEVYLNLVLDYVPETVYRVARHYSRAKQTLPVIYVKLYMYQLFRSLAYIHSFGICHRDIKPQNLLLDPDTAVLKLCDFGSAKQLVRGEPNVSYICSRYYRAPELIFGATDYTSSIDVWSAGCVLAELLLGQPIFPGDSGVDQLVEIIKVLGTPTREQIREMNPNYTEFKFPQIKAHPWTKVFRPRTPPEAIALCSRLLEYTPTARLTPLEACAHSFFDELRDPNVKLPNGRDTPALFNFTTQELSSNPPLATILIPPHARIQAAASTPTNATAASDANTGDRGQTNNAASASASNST
# [23] = molecular target: Serine/threonine-protein kinase B-raf (Homo sapiens) (UniProt P15056); assay: Competitive binding to B-RAF kinase (unknown origin) at 100 nM to 100 uM after 60 to 120 mins by FRET analysis
# Chain of Serine/threonine-protein kinase B-raf (Homo sapiens) (P15056 whole entry): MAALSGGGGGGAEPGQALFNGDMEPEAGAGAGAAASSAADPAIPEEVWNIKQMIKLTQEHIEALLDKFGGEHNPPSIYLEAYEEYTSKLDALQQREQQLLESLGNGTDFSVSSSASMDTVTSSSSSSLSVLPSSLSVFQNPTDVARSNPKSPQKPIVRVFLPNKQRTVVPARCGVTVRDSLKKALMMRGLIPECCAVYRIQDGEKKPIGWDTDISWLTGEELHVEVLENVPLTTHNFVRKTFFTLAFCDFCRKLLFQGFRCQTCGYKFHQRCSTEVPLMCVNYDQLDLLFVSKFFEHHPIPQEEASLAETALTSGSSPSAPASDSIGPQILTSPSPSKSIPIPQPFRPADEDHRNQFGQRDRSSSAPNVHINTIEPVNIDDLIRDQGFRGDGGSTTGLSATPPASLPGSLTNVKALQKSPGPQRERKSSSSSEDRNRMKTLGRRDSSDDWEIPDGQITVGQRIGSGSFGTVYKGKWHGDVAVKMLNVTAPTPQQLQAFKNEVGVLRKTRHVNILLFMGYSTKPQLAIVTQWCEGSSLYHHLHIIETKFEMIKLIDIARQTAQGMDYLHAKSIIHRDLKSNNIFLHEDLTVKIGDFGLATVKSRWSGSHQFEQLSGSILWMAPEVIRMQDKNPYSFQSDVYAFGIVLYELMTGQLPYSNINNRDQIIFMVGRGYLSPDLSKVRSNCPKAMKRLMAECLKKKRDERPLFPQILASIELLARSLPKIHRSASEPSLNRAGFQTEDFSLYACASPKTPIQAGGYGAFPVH
# HL-60 [24] = assay: Cytotoxicity against human HL60 cells after 72 hrs by Alamar Blue assay; assay type: functional, cell-based; conditions: HL-60, 72 h
# HL-60 [25] = assay: Induction of apoptosis in human HL60 cells assessed as cell shrinkage at 50 uM after 72 hrs by microscopy relative to vehicle-treated control; assay type: functional, cell-based
# HL-60 [26] = assay: Induction of apoptosis in human HL60 cells assessed as nuclear fragmentation at 50 uM after 72 hrs by microscopy relative to vehicle-treated control; assay type: functional, cell-based
# HL-60 [27] = assay: Induction of apoptosis in human HL60 cells assessed as cell membrane blebbing at 50 uM after 72 hrs by microscopy relative to vehicle-treated control; assay type: functional, cell-based
# HL-60 [28] = assay: Cell cycle arrest in human HL60 cells assessed as accumulation at pre-G1 phase at 25 uM after 48 hrs by propidium iodide staining-based flow cytometry (reference value: 0.17%); assay type: functional
# HL-60 [29] = assay: Cell cycle arrest in human HL60 cells assessed as accumulation at pre-G1 phase at 50 uM after 48 hrs by propidium iodide staining-based flow cytometry (reference value: 0.17%); assay type: functional
# HL-60 [30] = assay: Cell cycle arrest in human HL60 cells assessed as accumulation at pre-G1 phase at 1 uM after 72 hrs by propidium iodide staining-based flow cytometry (reference value: 0.14%); assay type: functional
# HL-60 [31] = assay: Cell cycle arrest in human HL60 cells assessed as accumulation at pre-G1 phase at 10 uM after 72 hrs by propidium iodide staining-based flow cytometry (reference value: 0.14%); assay type: functional
# HL-60 [32] = assay: Cell cycle arrest in human HL60 cells assessed as accumulation at pre-G1 phase at 50 uM after 72 hrs by propidium iodide staining-based flow cytometry (reference value: 0.14%); assay type: functional
# HL-60 [33] = assay: Cell cycle arrest in human HL60 cells assessed as accumulation at G0/G1 phase at 10 uM after 48 hrs by propidium iodide staining-based flow cytometry (reference value: 57.0 +/- 1.0%); assay type: functional
# HL-60 [34] = assay: Cell cycle arrest in human HL60 cells assessed as accumulation at G0/G1 phase at 25 uM after 48 hrs by propidium iodide staining-based flow cytometry (reference value: 57.0 +/- 1.0%); assay type: functional
# HL-60 [35] = assay: Cell cycle arrest in human HL60 cells assessed as accumulation at G0/G1 phase at 50 uM after 48 hrs by propidium iodide staining-based flow cytometry (reference value: 57.0 +/- 1.0%); assay type: functional
smiles,measurement,setting,value
Cl.N=C(N)Nc1ccc(Oc2cccc(NC(=N)Nc3ccc(Cl)c(C(F)(F)F)c3)c2)cc1,Activity,HL-60 [1],61.7%
same,Activity,HL-60 [2],73.4%
same,Activity,HL-60 [3],43.7%
same,Activity,HL-60 [4],14.7%
same,Activity,HL-60 [5],7.15%
same,Activity,HL-60 [6],15.7%
same,Activity,HL-60 [7],17.1%
same,Activity,HL-60 [8],4.19%
same,Activity,HL-60 [9],14.4%
same,Activity,HL-60 [10],20.4%
same,Activity,HL-60 [11],14.6%
same,Activity,HL-60 [12],18.6%
same,Activity,HL-60 [13],18.9%
same,Activity,HL-60 [14],13.6%
same,Activity,HL-60 [15],2.17%
same,Activity,HL-60 [16],2.17%
same,Activity,HL-60 [17],3.14%
same,Activity,HL-60 [18],3.23%
same,Activity,HL-60 [19],2.56%
same,Activity,HL-60 [20],1.75%
same,pIC50,[21],< 4.00
same,pIC50,[22],< 4.00
same,Activity,[23],inactive
same,pIC50,HL-60 [24],5.01
same,Activity,HL-60 [25],Active
same,Activity,HL-60 [26],Active
same,Activity,HL-60 [27],Active
same,Activity,HL-60 [28],1.75%
same,Activity,HL-60 [29],12.5%
same,Activity,HL-60 [30],0.13%
same,Activity,HL-60 [31],0.23%
same,Activity,HL-60 [32],25.1%
same,Activity,HL-60 [33],68.9%
same,Activity,HL-60 [34],69.2%
same,Activity,HL-60 [35],44.6%
